{"source": "paper PMC4170816", "about": "(Journal of Chemical Information and Modeling, 2014)", "key": {"CB2-WT": {"biological_target": "CB2-WT (Homo sapiens, UniProt P34972)", "sequence (P34972 whole entry)": "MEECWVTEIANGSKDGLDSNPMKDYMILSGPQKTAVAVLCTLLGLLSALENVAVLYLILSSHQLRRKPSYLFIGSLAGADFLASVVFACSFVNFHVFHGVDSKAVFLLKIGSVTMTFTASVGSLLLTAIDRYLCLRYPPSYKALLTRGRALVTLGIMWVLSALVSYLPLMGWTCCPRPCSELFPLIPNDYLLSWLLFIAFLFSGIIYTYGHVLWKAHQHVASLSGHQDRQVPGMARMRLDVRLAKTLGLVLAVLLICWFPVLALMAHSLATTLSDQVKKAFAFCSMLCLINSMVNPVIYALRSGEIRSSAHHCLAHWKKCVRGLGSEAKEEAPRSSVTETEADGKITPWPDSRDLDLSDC", "assay": "[3H]CP55940 binding to CB2-WT in buffer supplemented with NaCl", "settings": "NaCl up to 1000 mM; CB2-WT transiently expressed on CHO cell membrane"}, "CB1": {"biological_target": "CB1", "settings": "read-out: Ki to the CB1 receptor; cited from earlier work"}, "wild-type CB2 (WT)": {"biological_target": "wild-type CB2 (WT) (Homo sapiens, UniProt P34972)", "sequence (P34972 whole entry)": "as above", "assay": "Competition binding assay, displacement of [3H]-CP-55940, membranes of CHO cells"}, "δ-opioid receptor": {"biological_target": "δ-opioid receptor", "settings": "cited from earlier work"}, "A2AAR": {"tested_on": "A2AAR", "settings": "sodium 150 mM; cited from earlier work"}}, "note": "Read-outs that look alike come from different tables or passages of the source.", "data": [{"molecule": "[Cl-].[Na+]", "note": "[Na^+, NaCl]", "values": [{"measurement": "effect on the binding of the CB2 agonist [3H]CP55940", "setting": "CB2-WT", "value": "did not have any effect"}]}, {"molecule": "Cc1ccc(Cn2nc(C(=O)N[C@@H]3C(C)(C)[C@@H]4CC[C@@]3(C)C4)cc2-c2ccc(Cl)c(C)c2)cc1", "note": "[SR144528, 5-(4-chloro-3-methylphenyl)-1-[(4-methylphenyl)methyl]-N-[(1S,2S,4R)-1,3,3-trimethylbicyclo[2.2.1]hept-2-yl]-1H-pyrazole-3-carboxamide]", "values": [{"measurement": "Ki", "setting": "CB1", "value": 400, "unit": "nM"}]}, {"molecule": "N=C(N)NC(=O)c1nc(Cl)c(N)nc1N", "note": "[amiloride]", "values": [{"measurement": "Ki", "setting": "wild-type CB2 (WT); Ki value at CB2, competition binding, no added NaCl", "value": 495000, "unit": "nM"}, {"measurement": "Ki", "setting": "wild-type CB2 (WT); Ki value at CB2 with 150 mM NaCl, with 150 mM NaCl", "value": 310000, "unit": "nM"}]}, {"molecule": "[D-Ala^2, D-Leu^5]-Enkephalin [[^3H]DADLE]", "values": [{"measurement": "Ki", "setting": "δ-opioid receptor; read-out: Ki value with 0 mM NaCl, 0 mM NaCl", "value": 280, "unit": "nM"}, {"measurement": "Ki", "setting": "δ-opioid receptor; read-out: Ki value with 140 mM NaCl, 140 mM NaCl", "value": 2800, "unit": "nM"}]}, {"molecule": "CCNC(=O)[C@H]1O[C@@H](n2cnc3c(N)ncnc32)[C@H](O)[C@@H]1O", "note": "[[^3H]NECA, 5′-N-ethylcarboxamidoadenosine]", "values": [{"measurement": "binding detected in presence of sodium", "setting": "A2AAR", "value": 25, "unit": "%"}]}]}
